# Source: patent USRE48711E1, “Apoptosis signal-regulating kinase inhibitors” (Gilead Sciences, Inc., priority 2009, dated 2021)
# Molecular target: ASK1 (Apoptosis Signal-Regulating Kinase 1) (Homo sapiens (Human), UniProt Q99683)
# Assay: ASK1 (Apoptosis Signal-Regulating Kinase 1) TR-FRET Kinase Assay (Biochemical IC50)
# Settings: TR-FRET, biotin-MBP substrate, 20 min pre-incubation, ATP added as 300 μM solution
# Method: The ability of compounds to inhibit ASK1 kinase activity was determined using a time resolved fluorescence resonance energy transfer [TR-FRET] assay utilizing biotinylated myelin basic protein [biotin-MBP] as the protein substrate. […] The enzyme was allowed to pre-incubate with compound for 20 minutes prior to initiating the kinase reaction with the addition of 5 μL/well 300 μM ATP in buffer (50 mM MOPS, pH 7.0, 5 mM Mg-acetate, 1 mM DTT, 5% DMSO) using the Decrac Fluidics Equator. The kinase reactions were allowed to proceed for 20 minutes at ambient temperature and were subsequently stopped with the addition of 5 μL/well 25 mM EDTA using the Deerac Fluidics Equator. […] The TR-FRET signal was then read on a Perkin. Elmer Envision plate reader after incubating the plates at ambient temperature for 2 hours.
# Chain of ASK1 (Apoptosis Signal-Regulating Kinase 1) (Q99683 649-946): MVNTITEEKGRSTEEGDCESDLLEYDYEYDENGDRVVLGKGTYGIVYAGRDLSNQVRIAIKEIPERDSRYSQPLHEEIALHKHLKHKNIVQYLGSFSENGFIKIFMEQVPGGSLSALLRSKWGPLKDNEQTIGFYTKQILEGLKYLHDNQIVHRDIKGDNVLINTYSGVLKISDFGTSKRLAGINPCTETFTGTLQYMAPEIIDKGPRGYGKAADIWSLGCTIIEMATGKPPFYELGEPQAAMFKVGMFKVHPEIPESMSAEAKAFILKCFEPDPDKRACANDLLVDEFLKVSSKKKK
row,Compound,IC50 [nM]
1,"O=C(Nc1cccc(-c2nncn2C2CC2)n1)c1ccc(Cl)c(-n2cnc(C3CC3)c2)c1 [Example 227, 4-chloro-3-(4-cyclopropyl-1H-imidazol-1-yl)-N-(6-(4-cyclopropyl-4H-1,2,4-triazol-3-yl)pyridin-2-yl)benzamide]",8
2,"O=C(Nc1cccc(-c2nncn2C2CC2)c1)c1cc(-c2cnc3ccccc3c2)ccn1 [Example 84, N-(3-(4-cyclopropyl-4H-1,2,4-triazol-3-yl)phenyl)-4-(quinolin-3-yl)picolinamide]",13
3,"O=C(Nc1cccc(-c2nncn2C2CC2)c1)c1cc(-n2ncnc2C2CC2)ccn1 [Example 203, 4-(5-cyclopropyl-1H-1,2,4-triazol-1-yl)-N-(3-(4-cyclopropyl-4H-1,2,4-triazol-3-yl)phenyl)picolinamide]",538
4,"CCN1CCN(c2ccnc(C(=O)Nc3cccc(-c4nncn4C4CC4)n3)c2)CC1=O [Example 178, N-(6-(4-cyclopropyl-4H-1,2,4-triazol-3-yl)pyridin-2-yl)-4-(4-ethyl-3-oxopiperazin-1-yl)picolinamide]",7
5,"Cc1c(C(=O)O)ncn1-c1cccc(C(=O)Nc2cccc(-c3nncn3C3CC3)n2)c1 [Example 213, 1-(3-(6-(4-cyclopropyl-4H-1,2,4-triazol-3-yl)pyridin-2-ylcarbamoyl)phenyl)-5-methyl-1H-imidazole-4-carboxylic acid]",11
6,"O=C(Nc1cccc(-c2nncn2C2CC2)c1)c1cc(-c2ccc(C3CC3)nc2)ncn1 [Example 144, N-(3-(4-cyclopropyl-4H-1,2,4-triazol-3-yl)phenyl)-6-(6-cyclopropylpyridin-3-yl)pyrimidine-4-carboxamide]",14
7,"COc1cncc(-c2ccnc(C(=O)Nc3cccc(-c4nncn4C)c3)c2)c1 [Example 11, 5-methoxy-N-(3-(4-methyl-4H-1,2,4-triazol-3-yl)phenyl)-3,4′-bipyridine-2′-carboxamide]",40
8,"C[C@@H](C1CC1)n1cnnc1-c1cccc(NC(=O)c2cc(-c3ccc(C4CC4)nc3)ccn2)c1 [Example 230, (S)-6-cyclopropyl-N-(3-(4-(1-cyclopropylethyl)-4H-1,2,4-triazol-3-yl)phenyl)-3,4′-bipyridine-2′-carboxamide]",58
9,"Cn1cncc1-c1ccnc(C(=O)Nc2cccc(-c3nncn3C3CC3)c2)c1 [Example 36, N-(3-(4-cyclopropyl-4H-1,2,4-triazol-3-yl)phenyl)-4-(1-methyl-1H-imidazol-5-yl)picolinamide]",18
10,"CN1CCC(c2ccc(-c3ccnc(C(=O)Nc4cccc(-c5nncn5C5CC5)c4)c3)cn2)C1=O (centres unmarked) [Example 110, N-(3-(4-cyclopropyl-4H-1,2,4-triazol-3-yl)phenyl)-6-(1-methyl-2-oxopyrrolidin-3-yl)-3,4′-bipyridine-2′-carboxamide]",8
11,"Cn1cnnc1-c1cccc(NC(=O)c2cncc(-c3ccccc3)c2)c1 [Example 2, N-(3-(4-methyl-4H-1,2,4-triazol-3-yl)phenyl)-5-phenylnicotinamide]",5590
12,"CCc1ncc(-c2ccnc(C(=O)Nc3cccc(-c4nncn4C4CC4)c3)c2)cc1F [Example 138, N-(3-(4-cyclopropyl-4H-1,2,4-triazol-3-yl)phenyl)-6-ethyl-5-fluoro-3,4′-bipyridine-2′-carboxamide]",8
13,"O=C(Nc1cccc(-c2nncn2C2CC2)n1)c1cc(-n2cnc3c2CCNC3C(F)(F)F)ccn1 (centres unmarked) [Example 195, N-(6-(4-cyclopropyl-4H-1,2,4-triazol-3-yl)pyridin-2-yl)-4-(4-(trifluoromethyl)-4,5,6,7-tetrahydro-1H-imidazo[4,5-c]pyridin-1-yl)picolinamide]",8
14,"O=C(Nc1cccc(-c2nncn2C2CC2)n1)c1cc(-c2ccc(C3CC3)nc2)c(Cl)cc1F [Example 265, 4-chloro-N-(6-(4-cyclopropyl-4H-1,2,4-triazol-3-yl)pyridin-2-yl)-5-(6-cyclopropylpyridin-3-yl)-2-fluorobenzamide]",27
15,"Cc1ccc2c(-c3ccc(C4CC4)nc3)cc(C(=O)Nc3cccc(-c4nncn4C4CC4)n3)nc2c1C [Example 236, N-(6-(4-cyclopropyl-4H-1,2,4-triazol-3-yl)pyridin-2-yl)-4-(6-cyclopropylpyridin-3-yl)-7,8-dimethylquinoline-2-carboxamide]",139
16,"CC(O)c1nnc(-c2ccnc(C(=O)Nc3cccc(-c4nncn4C4CC4)c3)c2)o1 (centres unmarked) [Example 252, N-(3-(4-cyclopropyl-4H-1,2,4-triazol-3-yl)phenyl)-4-(5-(1-hydroxyethyl)-1,3,4-oxadiazol-2-yl)picolinamide]",3410
17,"O=C(Nc1cccc(-c2nncn2C2CC2)n1)c1cc(-n2cnc3c2CCCC3)ccn1 [Example 187, N-(6-(4-cyclopropyl-4H-1,2,4-triazol-3-yl)pyridin-2-yl)-4-(4,5,6,7-tetrahydro-1H-benzo[d]imidazol-1-yl)picolinamide]",4
18,"O=C(Nc1cccc(-c2nncn2C2CC2)c1)c1cc(-n2cnc(C3CC3)n2)ccn1 [Example 202, 4-(3-cyclopropyl-1H-1,2,4-triazol-1-yl)-N-(3-(4-cyclopropyl-4H-1,2,4-triazol-3-yl)phenyl)picolinamide]",17

row,Compound,IC50 [nM]
1,"O=C(Nc1cccc(-c2nncn2C2CC2)c1)c1cc(-n2cnc3ccccc32)ccn1 [Example 37, 4-(1H-benzo[d]imidazol-1-yl)-N-(3-(4-cyclopropyl-4H-1,2,4-triazol-3-yl)phenyl)picolinamide]",8
2,"O=C(Nc1cccc(-c2nncn2C2CC2)c1)c1cc(-c2cnc3c(c2)CN(CC(F)(F)F)CC3)ccn1 [Example 161, N-(3-(4-cyclopropyl-4H-1,2,4-triazol-3-yl)phenyl)-4-(6-(2,2,2-trifluoroethyl)-5,6,7,8-tetrahydro-1,6-naphthyridin-3-yl)picolinamide]",9
3,"COc1ccc(-c2ccc(C3CC3)nc2)cc1C(=O)Nc1cccc(-c2nncn2C2CC2)c1 [Example 271, N-(3-(4-cyclopropyl-4H-1,2,4-triazol-3-yl)phenyl)-5-(6-cyclopropylpyridin-3-yl)-2-methoxybenzamide]",24
4,"CC(C)n1ccc2ncc(-c3ccnc(C(=O)Nc4cccc(-c5nncn5C5CC5)c4)c3)cc21 [Example 243, N-(3-(4-cyclopropyl-4H-1,2,4-triazol-3-yl)phenyl)-4-(1-isopropyl-1H-pyrrolo[3,2-b]pyridin-6-yl)picolinamide]",15
5,"O=C(Nc1cc(-c2nncn2C2CC2)ccn1)c1cc(-c2cccnc2)ccn1 [Example 164, N-(4-(4-cyclopropyl-4H-1,2,4-triazol-3-yl)pyridin-2-yl)-3,4′-bipyridine-2′-carboxamide]",18
6,"O=C(Nc1cccc(-c2nncn2C2CCCC2)c1)c1cc(-c2cccnc2)ccn1 [Example 40, N-(3-(4-cyclopentyl-4H-1,2,4-triazol-3-yl)phenyl)-3,4′-bipyridine-2′-carboxamide]",75
7,"O=C(Nc1cccc(-c2nncn2C2CC2)n1)c1cc(-n2cnc(C(O)C(F)(F)F)c2)ccn1 (centres unmarked) [Example 207, N-(6-(4-cyclopropyl-4H-1,2,4-triazol-3-yl)pyridin-2-yl)-4-(4-(2,2,2-trifluoro-1-hydroxyethyl)-1H-imidazol-1-yl)picolinamide]",11
8,"O=C(Nc1cccc(-c2nncn2C2CC2)c1)c1cc(-c2ccc(CC3CC3)nc2)ccn1 [Example 268, N-(3-(4-cyclopropyl-4H-1,2,4-triazol-3-yl)phenyl)-6-(cyclopropylmethyl)-3,4′-bipyridine-2′-carboxamide]",13
9,"O=C(Nc1cccc(-c2nncn2CC2CC2)c1)c1cc(-c2cccnc2)ccn1 [Example 181, N-(3-(4-(cyclopropylmethyl)-4H-1,2,4-triazol-3-yl)phenyl)-3,4′-bipyridine-2′-carboxamide]",131
10,"Cc1cccc(C)c1OC[C@H](C)n1cnnc1-c1cccc(NC(=O)c2cc(-c3ccc(C4CC4)nc3)ccn2)c1 [Example 239, (S)-6-cyclopropyl-N-(3-(4-(1-(2,6-dimethylphenoxy)propan-2-yl)-4H-1,2,4-triazol-3-yl)phenyl)-3,4′-bipyridine-2′-carboxamide]",10900
11,"O=C(Nc1cccc(-c2nncn2C2CC2)c1F)c1cc(-c2ccc(C3CC3)nc2)ccn1 [Example 155, 6-cyclopropyl-N-(3-(4-cyclopropyl-4H-1,2,4-triazol-3-yl)-2-fluorophenyl)-3,4′-bipyridine-2′-carboxamide]",10
12,"C[C@H](n1cnnc1-c1cccc(NC(=O)c2cc(-c3ccc(C4CC4)nc3)ccn2)n1)C(F)(F)F [Example 179, (S)-6-cyclopropyl-N-(6-(4-(1,1,1-trifluoropropan-2-yl)-4H-1,2,4-triazol-3-yl)pyridin-2-yl)-3,4′-bipyridine-2′-carboxamide]",19
13,"Cn1cnnc1-c1cccc(NC(=O)c2cncc(-c3cccnc3)c2)c1 [Example 8, N-(3-(4-methyl-4H-1,2,4-triazol-3-yl)phenyl)-3,3′-bipyridine-5-carboxamide]",220
14,"O=C(Nc1cccc(-c2cncn2C2CC2)c1)c1cc(-c2ccc(C3CC3)nc2)ccn1 [Example 107, 6-cyclopropyl-N-(3-(1-cyclopropyl-1H-imidazol-5-yl)phenyl)-3,4′-bipyridine-2′-carboxamide]",31
15,"CN1CCC(n2cnnc2-c2cccc(NC(=O)c3cc(-c4ccc(C5CC5)nc4)ccn3)n2)CC1 [Example 241, 6-cyclopropyl-N-(6-(4-(1-methylpiperidin-4-yl)-4H-1,2,4-triazol-3-yl)pyridin-2-yl)-3,4′-bipyridine-2′-carboxamide]",616
16,"CC(C)[C@H](C)n1cnnc1-c1cccc(NC(=O)c2cc(-n3cnc(C4CC4)c3)ccn2)c1 [Example 264, (S)-4-(4-cyclopropyl-1H-imidazol-1-yl)-N-(3-(4-(3-methylbutan-2-yl)-4H-1,2,4-triazol-3-yl)phenyl)picolinamide]",23
17,"Cn1cnnc1-c1cccc(NC(=O)c2cc(N3CCOCC3)ccn2)c1 [Example 30, N-(3-(4-methyl-4H-1,2,4-triazol-3-yl)phenyl)-4-morpholinopicolinamide]",335
